This is an account of results in patent US20130149721A1, “Methods for Inhibiting Amyloid Precursor Protein and Beta-Amyloid Production and Accumulation” (WISCONSIN ALUMNI RESEARCH FOUNDATION, priority 2008, published 2013).

Structures are written as SMILES.

In assay [1] the test system is dendritic APP in primary neuronal cells. Description: Immunofluorescence confocal quantitation of dendritic APP in primary cortical neurons. Type of assay: cell-based, mouse. The protocol: Pregnant female mice at embryonic day 18 (E18) were anesthetized with halothane prior to decapitation and transfer of the uterine sac to ice-cold HBSS. […] Cells were counted by trypan blue dye exclusion and plated at 1.25×10^5 cells/ml on poly(D)-lysine-coated glass coverslips in 12-well tissue-culture dishes and cultured for 11 d at 37° C./5% CO2. Half of the culture medium was removed and replaced with fresh, warm medium on day 4. […] All washes and antibody dilutions were in PBS containing 2% FBS. […] Images were acquired with a Nikon C1 laser-scanning confocal microscope with EZ-C1 v2.20 software (Nikon, http://www.nikon.com) at 60× magnification. APP levels in the puncta of four to seven dendrites per sample were quantitated with IMAGE J software using the Analyze Particles function (minimum of 205 puncta analyzed per treatment) (Rasband, Image J, U.S. National Institutes of Health, http://rsb.info.nih.gov/ij; 1997-2006). Figures were assembled with Adobe Photoshop 8.0 (Adobe Systems, http://www.adobe.com). […] It was recognized that SN are a relatively crude preparation of pre- and post-synaptic dendrites that are contaminated with other cell types, such as astrocytes, which form synapses with neurons. Thus, primary E18 cortical neuron cultures were prepared from WT and Fmr-1 KO brains and dendritic APP levels assessed using an immunofluorescence assay. There was a 21% increase in the basal level of APP in untreated dendrites from Fmr-1 KO neurons compared to WT (FIG. 5B). […] Staining of dendritic puncta was analyzed by confocal microscopy and quantitated with Image J software using the Analyze Particles function (a minimum of 475 particles were analyzed per treatment) (Rasband, W. S., Image J, U.S. National Institutes of Health, http://rsb.info.nih.gov/ij; 1997-2006). Duplicate slides were stained for each treatment and the number and intensity of dendritic puncta from three areas of each slide were analyzed and averaged. All MPEP-treated samples were statistically different from untreated controls by t-test analyses (p<0.005) and expressed as standard error of the mean (SEM).

A further assay deals with APP translation in SN. The assay can be described thus: 35S-Met labeling and immunoprecipitation of newly synthesized APP in synaptoneurosomes. The following applies: WT SN. Type of assay: cell-based, mouse. The protocol: WT and KO SNs (450 μl) were mixed with 25 μl Redivue Pro-Mix-L [^35S] for 5 min prior to stimulation with 25 μl 2 mM DHPG. Samples were flash frozen at the indicated times. To analyze new protein synthesis, SN lysates were cleared of free isotope, Percoll®, and sucrose by purification with the PAGEprep Advance kit according to the manufacturer's directions. Protein concentrations were determined by the BCA assay, and 15 μg protein was denatured and loaded per lane on 12% SDS gels for content analysis. Gels were dried and exposed to a phosphorimager screen to identify the results of these assays.
To specifically analyze APP synthesis, WT and KO SN lysates (500 μl) were immunoprecipitated with APP antibody. Briefly, SN lysates were precleared with protein A magnetic beads in 1 ml volumes containing 500 μl SNs, 500 μl 2×IP buffer (20 mM HEPES (pH 7.4), 400 mM NaCl, 60 mM EDTA (pH 8), and 2% Triton X-100), protease inhibitor cocktail, and 100 μl packed fresh protein A magnetic beads. For the immunoprecipitations, 10 μg anti-APP antibody (Zymed catalog number 51-2700) and fresh protein A magnetic beads were added and mixed overnight at 4° C. The beads were washed three times with IP buffer, and the final, washed pellets were suspended in 40 μl 2×SDS sample buffer and boiled for 5 min; the proteins were then separated on 12% SDS gels. The gels were transferred to a nitrocelluose membrane, dried, exposed to a phosphorimager screen, and scanned on a STORM 860 phosphorimager (Molecular Dynamics http://www6.amershambiosciences.com). APP bands at 120 kDa were quantitated with ImageQuant software (GE Healthcare Life Sciences, http://www4.amershambiosciences.com).
For mGluR5 inhibitor studies, SNs (425 μl) were preincubated with 25 μl anisomycin (40 μM final concentration) or MPEP (10 μM final concentration) for 10 min prior to the addition of 25 μl ^35S-Met for 5 min and stimulation with DHPG (100 μM final concentration) for 15 min. Samples were processed as described in the preceding paragraph.
To further assess FMRP regulation of APP levels in brain, cortical SN were prepared from WT mice and overall protein synthesis analyzed in response to DHPG (100 μM)-induced mGluR5 activation. SN were metabolically active as assessed by ^35S-Met incorporation. […]
These conclusions were tested by assessing the effects on APP translation of contacting SN with a group 1 mGluR5 antagonist, 2-methyl-6-(phenylethynyl)-pyridine (MPEP). […] To assess the effect of MPEP, a specific mGluR5 antagonist, on DHPG stimulation of de novo APP synthesis, SN were pre-treated with 10 μM MPEP for 10 min prior to the addition of ^35S-Met for 5 min and stimulation with 100 μM DHPG for 15 min. ^35S-Met-labeled APP was immunoprecipitated with anti-APP antibodies and analyzed by SDS-PAGE. […]

The target of the next assay is mGluR5 (Homo sapiens, UniProt P41594). The following applies: shared allosteric modulatory site; cited from earlier work.
The mark [2] stands for this setting: WT primary neuronal cells, 10 μM MPEP.

Sequence of mGluR5 (P41594 21-1212): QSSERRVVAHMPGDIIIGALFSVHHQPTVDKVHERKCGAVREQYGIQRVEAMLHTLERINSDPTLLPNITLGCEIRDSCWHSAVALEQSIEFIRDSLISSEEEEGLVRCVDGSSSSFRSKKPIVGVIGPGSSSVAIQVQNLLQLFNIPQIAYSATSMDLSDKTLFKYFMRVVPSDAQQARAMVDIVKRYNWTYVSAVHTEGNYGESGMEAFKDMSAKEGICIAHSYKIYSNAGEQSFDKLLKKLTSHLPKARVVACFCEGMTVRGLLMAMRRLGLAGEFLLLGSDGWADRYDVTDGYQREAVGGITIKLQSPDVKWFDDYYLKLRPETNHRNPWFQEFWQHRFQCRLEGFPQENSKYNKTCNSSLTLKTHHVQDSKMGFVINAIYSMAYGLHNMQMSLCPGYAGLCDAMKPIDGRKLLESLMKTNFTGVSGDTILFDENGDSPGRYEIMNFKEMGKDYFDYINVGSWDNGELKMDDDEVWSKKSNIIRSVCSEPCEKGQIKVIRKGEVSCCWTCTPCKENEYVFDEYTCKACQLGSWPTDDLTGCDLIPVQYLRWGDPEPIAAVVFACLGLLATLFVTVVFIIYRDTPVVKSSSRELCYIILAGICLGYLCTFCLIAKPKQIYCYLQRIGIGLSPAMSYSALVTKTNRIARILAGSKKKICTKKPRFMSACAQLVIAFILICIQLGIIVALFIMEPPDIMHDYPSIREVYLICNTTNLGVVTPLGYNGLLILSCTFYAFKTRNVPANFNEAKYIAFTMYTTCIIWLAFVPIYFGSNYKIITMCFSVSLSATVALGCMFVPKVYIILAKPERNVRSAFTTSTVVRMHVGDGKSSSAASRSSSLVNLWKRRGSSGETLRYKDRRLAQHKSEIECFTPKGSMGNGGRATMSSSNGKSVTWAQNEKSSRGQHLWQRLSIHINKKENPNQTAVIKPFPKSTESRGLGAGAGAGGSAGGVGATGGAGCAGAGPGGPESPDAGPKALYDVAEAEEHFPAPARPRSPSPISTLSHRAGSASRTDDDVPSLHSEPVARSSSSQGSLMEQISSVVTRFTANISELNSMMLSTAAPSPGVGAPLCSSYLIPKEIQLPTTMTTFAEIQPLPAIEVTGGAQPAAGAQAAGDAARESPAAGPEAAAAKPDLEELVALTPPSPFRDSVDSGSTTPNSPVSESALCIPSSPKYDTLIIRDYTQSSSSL

Regarding `Cc1cccc(C#Cc2ccccc2)n1` [MPEP, 2-methyl-6-(phenylethynyl)pyridine], the “decrease in dendritic APP (average particle intensity)” value in assay [1] (WT C57BL/6 primary neuronal cells, 10 μM MPEP, 15 min) was found to be 37%. Besides, in assay [1] (setting [2]), the “decrease in area of each particle” value was found to be 22% and the “increase in number of particles in a defined area” value was 29%. In addition, the “decrease in dendritic APP at later times” value in assay [1] (WT primary neuronal cells, 10 μM MPEP, 4 hr and 1 day) is “persisted”. The “effect on DHPG-mediated synthesis of APP” value in the assay on APP translation in SN (10 μM MPEP pre-treatment 10 min, 100 μM DHPG 15 min) is “blocked”. For the same compound, on mGluR5, the mGluR5 antagonist character result is “potent and highly selective noncompetitive antagonists”.
For the compound `N[C@@H](C(=O)O)c1cc(O)cc(O)c1` (racemic) [DHPG, (R,S)-3,5-dihydroxyphenylglycine], the “increase in dendritic APP levels” value in assay [1] (Fmr-1 KO cultures, DHPG 10 and 20 min) is recorded as “no increase”; in assay [1] (WT neurons, 100 μM DHPG, 10 and 20 min), 18-25%. Moreover, in the assay with APP translation in SN (100 μM DHPG, 15 min), the “increase in APP translation” value was 2.7 fold. Besides, the “increase in APP translation over control” value in the assay with APP translation in SN (100 μM DHPG, 1 hr) was 1.6 fold.
